Several values for one entry are separate records, joined by “and”; a condition that tells them apart may be missing. Equal entries are not always repeated.
Tested on: A498 complex spheroids with HUVEC/MSC, growth
Assay: Anticancer human tumor A498 cell line growth inhibition [AhR];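 note: seven day exposure starting three days after spheroid seeding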;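 for viability, T/C: luminescence signal used as a surrogate for viable cells; luminescence viability scaled so 100% equals DMSO vehicle wells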
Settings: for viability, T/C: stronger effect = lower value
Excerpt: Multicellular complex tumor spheroid response to aryl hydrocarbon receptor antagonists in combination with a variety of drugs and investigational agents in selected tumor cell lines
The current study was undertaken to assess response to aryl hydrocarbon receptor antagonists in combination with standard-of-care drugs and investigational agents in solid tumor complex spheroid models. Complex spheroids include a stromal component modeled by human endothelial cells (HUVEC) and fibroblasts modeled by human mesenchymal stem cells (MSCs). The concentration ranges selected for each drug and investigational agent were based upon clinically achievable concentrations if the clinical Cmax of the agent was known.
Compounds. The drugs and investigational agents: BAY 2416964 (NSC825713), GNF351 (NSC835774), CH-223191 (NSC835775), CPI-455 (NSC825282), aza-TdCyd (NSC777586), decitabine (NSC127716), belinostat (NSC758774), entinostat (NSC756642), pevonedistat (NSC761192), tazemetostat (NSC777109), talazoparib (NSC765396), olaparib (NSC753686), selinexor (NSC780203), nedisertib (M3814, NSC802822), bortezomib (NSC756655), venetoclax (NSC766270), doxorubicin (NSC123127), elimusertib (BAY189344, NSC800525), ceralasertib (AZD6738, NSC777638), TAK-243 (NSC785004), alisertib (NSC759677), etoposide (NSC141540), topotecan (NSC609699), eribulin (NSC707389), gemcitabine (NSC613327), carboplatin (NSC241240), cisplatin (NSC119875), and SN-38 (NSC673596) were obtained from the National Cancer Institute (NCI) Developmental Therapeutics Program Chemical Repository (32). The FDA-approved anticancer drug set is available from the Developmental Therapeutics Program at https://dtp.cancer.gov/organization/dscb/obtaining/available plates.htm. […] The stock solutions were prepared in dimethyl sulfoxide (DMSO, Sigma-Aldrich, St. Louis, MO, cat. D2650), except for the platinum compounds which were prepared in saline (Quality Biological, Gaithersburg, MD, cat. 114-055-101), at 800-fold the tested concentration and stored at -70 degrees C prior to their use. All drugs and investigational agents were tested over a range starting from a high concentration at or near the clinical Cmax and decreasing in half-log increments. If the clinical Cmax for an agent had not been determined, the highest concentration tested was 10 microM (Table 1).
Cell Culture. All cells were maintained in an incubator at 37 degrees C and 5% CO2 with 95% humidity. The PDC lines were cultured according to standard operating procedures established by the NCI PDMR (https://pdmr.cancer.gov). Briefly, all PDCs were thawed and cultured in Matrigel-coated flasks prepared with a working solution of 1X Ham's F-12 nutrient mix, without supplementation (Invitrogen, Waltham, MA, cat. 11765054), 100 U/mL penicillin-streptomycin (Invitrogen, cat. 15140122), and 2.5% Matrigel (Corning Inc., Corning, NY, cat. 354248) for the first three passages. All PDCs were cultured in complete DMEM/F-12 media containing advanced DMEM/F-12 (Invitrogen, cat. 12634028), 4.9% defined fetal bovine serum, heat inactivated (HyClone Laboratories Inc., Logan, UT, cat. SH30070.03HI), 389 ng/mL hydrocortisone (Sigma-Aldrich, cat. H4001), 9.7 ng/mL human EGF recombinant protein (Invitrogen, cat. PHG0313), 23.4 microg/mL adenine (Sigma-Aldrich, cat. A2786), 97.3 U/mL penicillin-streptomycin (Invitrogen, cat. 15140122), 1.9 mM L-glutamine (Invitrogen, cat. 25030081), and 9.7 microM Y-27632 dihydrochloride (Tocris Bioscience, Bristol, United Kingdom, cat. 1254). The PDCs were cultured in complete DMEM/F12 media without 10 microM Y-27632 dihydrochloride for at least two passages prior to the screen. The established cell lines NCI-H1341 and […] were cultured in DMEM/F-12, HEPES (Invitrogen, cat. 11330032), 5% defined fetal bovine serum (HyClone Laboratories Inc., cat. SH30070.03), ITS premix universal culture supplement [insulin (5 microg/mL), transferrin (5 microg/mL), and selenious acid (5 ng/mL)] […]

CC(C)CC(NC(=O)C(Cc1ccccc1)NC(=O)c1cnccn1)B(O)O (stereo unspecified)
viability, T/C (compound 0.000949 µM): 103% and 105% and 98.6%
viability, T/C (compound 0.003 µM): 106% and 99.9% and 58.5%
viability, T/C (compound 0.00949 µM): 6.74% and 11.6% and 2.52%
viability, T/C (compound 0.03 µM): 1.23% and 2.41% and 0.68%
viability, T/C (compound 0.0949 µM): 0.52% and 1.47% and 1.32%
viability, T/C (compound 0.3 µM): 0.53% and 0.64% and 0.32%
IC50 (curve of compound): 5.7 nM and 5.75 nM and 3.57 nM

CCN(c1cc(-c2ccc(CN3CCOCC3)cc2)cc(C(=O)NCc2c(C)cc(C)[nH]c2=O)c1C)C1CCOCC1
viability, T/C (compound 0.00949 µM): 105% and 107% and 106%
viability, T/C (compound 0.03 µM): 106% (2×) and 107%
viability, T/C (compound 0.0949 µM): 107% and 109% and 106%
viability, T/C (compound 0.3 µM): 102% (2×) and 97.8%
viability, T/C (compound 0.949 µM): 101% and 104% and 108%
viability, T/C (compound 3 µM): 103% and 104% and 110%
IC50 (curve of compound): > 3000 nM

CCc1c2c(nc3ccc(O)cc13)-c1cc3c(c(=O)n1C2)COC(=O)[C@]3(O)CC + Cc1cncc(-c2nc(NCCc3c[nH]c4ccccc34)c3ncn(C(C)C)c3n2)c1
IC50 (curve of first compound, second compound 0.1 µM): 32.8 nM
IC50 (curve of first compound, second compound 0.316 µM): 33.7 nM
IC50 (curve of first compound, second compound 1 µM): 23.6 nM
IC50 (curve of first compound, second compound 3.16 µM): 14 nM
IC50 (curve of first compound, second compound 10 µM): < 0.949 nM
viability, T/C (second compound 0.1 µM, first compound 0.000949 µM): 78.1%
viability, T/C (second compound 0.1 µM, first compound 0.003 µM): 81.4%
viability, T/C (second compound 0.1 µM, first compound 0.00949 µM): 70.2%
viability, T/C (second compound 0.1 µM, first compound 0.03 µM): 51%
viability, T/C (second compound 0.1 µM, first compound 0.0949 µM): 39.1%
viability, T/C (second compound 0.1 µM, first compound 0.3 µM): 35.3%
viability, T/C (second compound 0.316 µM, first compound 0.000949 µM): 85.7%
viability, T/C (second compound 0.316 µM, first compound 0.003 µM): 76%
viability, T/C (second compound 0.316 µM, first compound 0.00949 µM): 67.1%
viability, T/C (second compound 0.316 µM, first compound 0.03 µM): 52.7%
viability, T/C (second compound 0.316 µM, first compound 0.0949 µM): 36.7%
viability, T/C (second compound 0.316 µM, first compound 0.3 µM): 35.2%
viability, T/C (second compound 1 µM, first compound 0.000949 µM): 77.1%
viability, T/C (second compound 1 µM, first compound 0.003 µM): 72.8%
viability, T/C (second compound 1 µM, first compound 0.00949 µM): 66.8%
viability, T/C (second compound 1 µM, first compound 0.03 µM): 45.4%
viability, T/C (second compound 1 µM, first compound 0.0949 µM): 32.4%
viability, T/C (second compound 1 µM, first compound 0.3 µM): 29.1%
viability, T/C (second compound 3.16 µM, first compound 0.000949 µM): 50.7%
viability, T/C (second compound 3.16 µM, first compound 0.003 µM): 53.5%
viability, T/C (second compound 3.16 µM, first compound 0.00949 µM): 58.1%
viability, T/C (second compound 3.16 µM, first compound 0.03 µM): 42%
viability, T/C (second compound 3.16 µM, first compound 0.0949 µM): 29.1%
viability, T/C (second compound 3.16 µM, first compound 0.3 µM): 26.3%
viability, T/C (second compound 10 µM, first compound 0.000949 µM): 5.42%
viability, T/C (second compound 10 µM, first compound 0.003 µM): 4.3%
viability, T/C (second compound 10 µM, first compound 0.00949 µM): 6.41%
viability, T/C (second compound 10 µM, first compound 0.03 µM): 7.12%
viability, T/C (second compound 10 µM, first compound 0.0949 µM): 5.73%
viability, T/C (second compound 10 µM, first compound 0.3 µM): 4.65%

O=C(C=Cn1cnc(-c2cc(C(F)(F)F)cc(C(F)(F)F)c2)n1)NNc1cnccn1
viability, T/C (compound 0.00949 µM): 99.2% and 101% and 90.7%
viability, T/C (compound 0.03 µM): 94.7% and 85.9% and 72.4%
viability, T/C (compound 0.0949 µM): 49.8% and 49% and 42.5%
viability, T/C (compound 0.3 µM): 34.6% and 34.1% and 25.4%
viability, T/C (compound 0.949 µM): 26.4% and 25% and 20.6%
viability, T/C (compound 3 µM): 23.9% and 17% and 14.4%
IC50 (curve of compound): 99.9 nM and 111 nM and 72.8 nM

From PubChem BioAssay AID1919007 (Molecular Pharmacology Branch, DTP, NCI, 2023)
